Results on five molecules are retold here after patent US20230390312A1, “NOVEL THERAPEUTIC COMBINATIONS COMPRISING DERIVATIVES OF OXAZAPHOSPHORINES FOR THE TREATMENT OF CANCER” (INSTITUT GUSTAVE ROUSSY, priority 2019, published 2023).

The subject of data set [1] is several cancerous cells. The conditions noted are these: cited from earlier work.
Data set [2] concerns MCA205 fibrosarcoma tumor. It is filed as in vivo, mouse. The conditions noted are these: single i.p. The procedure:
7-8 weeks-old female C57BL/6 mice (mean body weight, 20 g) were purchased from Harlan Laboratories (Gannat, France). Animals were used in pathogen-free conditions. MCA205 fibrosarcoma tumor cell line (syngenic from C57Bl/6 mice) was kindly provided by Dr Yamazaki Takahiro (INSERM U1015, Gustave Roussy, Villejuif, France). They were harvested at 37° C. under 5% CO2 in Gibco™ RPMI 1640 medium (Paisley, UK) supplemented with 10% Fetal Bovine Serum (Paisley, UK) and 2 mM L-glutamine (Invitrogen, USA). All animal experiments were carried out in compliance with French and European laws and regulations and by the CEEA26 Ethic committee and the ministry of national education, higher education and research and carried out under conditions established by the European Community (Directive 2010/63/2015-038).
(§1) 8·10^5 tumor cells were inoculated subcutaneously (s.c.) in the right flank of C57Bl/6 mice on DO.
Regarding study for combination between chemotherapy (G-IFO) and anti-PD1 mAbs, mice received G-IFO or vehicle on D9 then 200 μg/mouse i.p. injections of anti-PD1 mAbs (clone RMP1-14) or its isotype control Rat IgG2a (clone 2A3) on D12, D15 and D19. Tumor volume was followed-up three times a week by measuring the length and width using a caliper. In order to normalize tumor measurements for each day VTDx to VTDi (VTDx/VTDi) ratio was calculated; VTDi corresponds to the tumor volume the day of treatment initiation and VTDx corresponds to the tumor volume on each measurement day for each mouse.

For data set [3], the system named is IFNγ, IL-17A and IL-6 secretion. Description: TCR-driven cytokine release by splenocytes of treated naive mice. It is filed as in vivo, mouse. The conditions noted are these: CPA 100 mg/kg, IFO 100, 150 and 200 mg/kg, CD3ε+CD28 stimulation. As to the method: (§2) Female C57BL/6 mice of 7 to 8 weeks were randomly assigned to the different treatment groups. […] Both drugs were dissolved in a solution of NaCl 0.9%. […] Seven days post treatment, the mice were sacrificed, spleens and tumors were collected. After lysis of red blood cells with ammonium chloride splenic viable cells were quantified with Trypan Blue with Vi-CELL XR (Beckman Coulter).
(§3) From spleen cell suspension, a total of 2·10^5 cells per well were incubated in 96 well Nunc MaxiSorp® plates (eBioscience) precoated with anti-CD3ε mAbs (clone 145-2C11, 10 μg/mL); eBioscience) and/or anti-CD28 mAbs (clone 37.57, 2 μg/mL; BD Pharmingen). The supernatants were assayed after 48 hours of incubation at 37° C. under 5% CO2 using Cytokine concentrations were quantified in the supernatant using a Bio-Plex™ Mouse Cytokine Standard 23-Plex, Group I Assay (bio rad, M60009RDPD). The panel was comprised of the following cytokines and chemokines: eotaxin, Granulocyte-Colony Stimulating Factor (G-CSF), Granulocyte-Macrophage-Colony Stimulating Factor (GM-CSF), interferon gamma (IFNγ), interleukin (IL)-1α (IL-1α), IL-1β, IL-2, IL-3, IL-4, IL-5, IL-6, IL-9, IL-10, IL-12p40, IL-12p70, IL-13, IL-17A, Keratinocyte Chemoattractant (KC), Macrophage Chemotactic Protein-1 (MCP-1), Macrophage Inflammatory Protein (MIP)-1alpha (MIP-1α), MIP-1β, Regulated on Activation Normal T cell Expressed and Secreted (RANTES) and Tumor Necrosis Factor-alpha (TNF-α). Results were analyzed using Bio-Plex Manager Software V 6.1 (Bio-Rad Laboratories, Hercules, CA, USA). […] These three cytokines were then quantified using mouse IL-17A ELISA Ready-SET-Go® (eBiosciences), Mouse IFNy ELISA Set (BD Biosciences) and Mouse IL-6 ELISA Set (BD Biosciences).

For data set [4], the system named is B cells. It is filed as in vivo, mouse. To be noted: for B cell depletion in the spleen: FIG. 4, IFO 150 mg/kg, CPA 100 mg/kg, G-IFO eq. 100 or 150 mg/kg, single i.p., 7 days. As to the method: as §2
(§4) Briefly, tumor dissociation was done with GentleMACS™ Dissociator after adding ADNase (260913, Millipore) and […] (5401127001, Sigma) to weighed and cut tumors. Tumor cells were incubated for 40 min at 37° C. under stirring and then quantified with Trypan Blue with Vi-CELL XR (Beckman Coulter). Before staining, Fcγ-receptors were blocked for 15 min at 4° C. using anti-CD16/32 functional grade purified antibodies (eBioscience, Paris, France). Cells were incubated for 30 min at 4° C. with antibodies for cell surface staining. For FoxP3 staining, cells were fixed and permeabilized after cell surface staining according to the FoxP3 kit protocol (eBioscience, Paris, France). Samples were acquired on 10-colors Gallios cytometer (Beckman Coulter, Villepinte, France). Analyses were performed using Kaluza software 1.3 (Beckman Coulter). Two different panels were used to identify immune cells. First leucocytes were identified by the use of FITC-conjugated anti-mouse CD45. T and B lymphocytes were identified using APC-Cy7-conjugated anti-mouse CD3 and BV421-conjugated anti-mouse CD19 respectively. CD4^+ and CD8^+ T cells were separated using PE-Cy7-conjugated anti-mouse CD4 and APC-R700-conjugated anti-mouse CD8a staining among CD3 positive cells, respectively. Treg cells were stained using APC-conjugated anti-mouse FoxP3 staining among CD3^+CD4^+ T cells (Table 1).

In data set [5] the test system is IFNγ, IL-17A and IL-6 secretion. Kind of data set: TCR-driven cytokine release by splenocytes of treated MCA205 tumor-bearing mice. It is filed as in vivo, mouse. The procedure:
(§5) Female C57BL/6 mice of 7 to 8 weeks were randomly assigned to the different treatment groups. […] Both drugs were dissolved in a solution of NaCl 0.9%. […] The administrations were performed by a single i.p. injection with a volume of 20 mL/kg or 10 mL/kg when adding G-IFO groups. Seven days post treatment, the mice were sacrificed, spleens and tumors were collected. After lysis of red blood cells with ammonium chloride splenic viable cells were quantified with Trypan Blue with Vi-CELL XR (Beckman Coulter).
as §3

The test system of data set [6] is T cells. It is filed as in vivo, mouse. The conditions noted are these: for T cell counts: tumor-bearing mice. As to the method:
as §5, §4

The test system of data set [7] is MCA205 fibrosarcoma tumor. Kind of data set: Antitumor activity of IFO in MCA205-bearing mice depleted in CD4+ and/or CD8+ T cells. It is filed as in vivo, mouse.
Source text: as §1

The subject of data set [8] is advanced refractory soft tissue. The conditions noted are these: high dose, cumulative dose of 12 000 mg/m2; cited from earlier work.
Data set [9] concerns osteosarcoma. To be noted: high dose, cumulative dose of 14 000 mg/m^2, cited from earlier work.
Data set [10] deals with large panel of tumor cells. To be noted: in vitro; cited from earlier work.
The subject of data set [11] is rhabdomyosarcoma. To be noted: murine model of rhabdomyosarcoma; cited from earlier work.
The conditions of data set [12]: mice, intravenous route; cited from earlier work.
The mark [13] stands for this setting: IFO 100 and 150 mg/kg, CD3ε and CD28 co-stimulation.

The structures appear in SMILES notation. “Also recorded” adds a separate entry of the source. Read-outs that look alike come from different tables or passages of the source.

`CC(C)=CCC/C(C)=C/CC/C(C)=C/CC/C=C(\C)CC/C=C(\C)CCC(=O)NCCSC1CCOP(=O)(NCCCl)N1CCCl` (stereo not drawn) [SQ-thio-IFO]: the cytotoxicity entry in [1] was “display cytotoxicity”.
Turning to `O=P1(N(CCCl)CCCl)NCCCO1` (stereo not drawn) [CPA, Cyclophosphamide], the tumor growth result in data set [2] (CPA 100 mg/kg) was “Significant reduction of the tumor growth”. In addition, in data set [3], the “TCR-driven IFNγ” value was “significantly increased”, the “TCR-driven IL-6” value is reported as “significantly increased” and the “TCR-driven IL-17A” value is given as “significantly increased”. Also, the “B cell depletion in the spleen” value in data set [4] is on record as “Dose-dependent B cell depletion”.
On to `O=P1(NCCCl)OCCCN1CCCl` (stereo not drawn) [IFO, ifosfamide], for which the tumor growth entry in data set [2] (IFO 100, 150, 200 and 300 mg/kg) is “delay of tumor growth”; in data set [7] (IFO 150 mg/kg single i.p., non-depleted mice), “Significant reduction of the tumor growth”. Further, the “TCR-driven IFNγ” value in data set [3] is “significant increase”; in [5] (setting [13]) it was “significant secretion”; in data set [5] (IFO 200 and 300 mg/kg) it was “failed to induce”. Further, the “TCR-driven IL-6” value in data set [3] is “significant increase”; in [5] (setting [13]), “significant secretion”; in [5] (IFO 200 and 300 mg/kg), “remained highly secreted”. Also, the “TCR-driven IL-17A” value in [3] is listed as “significant increase”; in data set [5] (setting [13]), “significant secretion”; in data set [5] (IFO 200 and 300 mg/kg) it was “failed to induce”. Also, the “TCR-driven IL-6 compared to CPA 100 mg/kg” value in data set [5] (IFO 150 mg/kg) is recorded as “more”. In data set [5] (IFO 150 mg/kg), the “TCR-driven IL-17 compared to CPA 100 mg/kg” value was “more”. In addition, the T cell counts result in [6] (IFO 100 and 150 mg/kg) was “no T cell counts decrease”; in data set [6] (IFO higher doses (200 and 300 mg/kg)) it was “T cell counts diminution”. The “B cell depletion in the spleen” value in data set [4] was “Dose-dependent B cell depletion”. Besides, the antitumor effect entry in data set [7] (IFO 150 mg/kg, CD4+ T cells and CD8+ T cells depleted mice) is “decrease of the antitumor effect”. For the same molecule, the antitumor efficacy result in data set [7] (IFO 150 mg/kg, mice depleted with both CD4+ and CD8+ T cells) is on record as “completely abolished”. The efficacy result in data set [8] is given as “effective”. For the same molecule, the toxicities entry in data set [8] is “major toxicities”. In [9] (children previously treated with conventional chemotherapy), the improved disease-free survival was 30 % of patients. The “severe nephrotoxicity, share of patients” value in [9] is “a quarter”.
In the case of `CC(C)=CCC/C(C)=C/COC1CCOP(=O)(NCCCl)N1CCCl` (stereo not drawn) [G-IFO, geranyloxy-Ifosfamide], the tumor growth entry in data set [2] (G-IFO eq. 100 mg/kg) is on record as “able to delay tumor growth; also recorded: showed an antitumoral activity; also recorded: delayed tumor-growth”; in data set [11], “prevent tumor growth”. The “tumor growth delay compared to CPA 100 mg/kg” value in data set [2] (G-IFO eq. 100 mg/kg, FIG. 2D) is given as “lower tumor growth delay”. Moreover, the “IFNγ secretion (Th1 polarization)” value in data set [5] (G-IFO eq. 100 mg/kg) is listed as “favored IFNγ secretion; also recorded: increase”. Besides, the IL-6 secretion entry in [5] (G-IFO eq. 100 mg/kg) was “increase”; in data set [5] (G-IFO eq. 150 mg/kg), “high levels of IL-6”. In addition, in [5] (G-IFO eq. 150 mg/kg), the IFNγ secretion entry is recorded as “poor secretion of IFNγ”. Further, the IL-17 secretion entry in data set [5] (escalating doses of G-IFO) is given as “No significant IL-17 secretion”. The T cell depletion result in [6] (G-IFO eq. 150 mg/kg) is “induced T cell depletion”. Moreover, the “B cell depletion in the spleen” value in data set [4] is reported as “Dose-dependent B cell depletion”. Besides, in data set [4] (G-IFO low dose eq. 100 mg/kg, i.p.), the B cells population result is “very affected”. Also, the cytotoxicity result in [10] is recorded as “cytotoxic”. The “conversion into 4-hydroxy-ifosfamide metabolite” value in data set [12] is recorded as “rapidly converted”.
With `CC(C)=CCC/C(C)=C/CC/C(C)=C/CC/C=C(\C)CC/C=C(\C)CCCOC1CCOP(=O)(NCCCl)N1CCCl` (stereo not drawn) [SQ-IFO], the cytotoxicity entry in [1] is recorded as “display cytotoxicity”.
